Drawing on ChEMBL document CHEMBL1201862, “PubChem BioAssay data set” (2004), this text covers AC50 and EC50 for 62 compounds.

For orientation: AC50 means the concentration giving half of the maximal activity seen. In general, EC50 refers to the concentration that produces a half-maximal response.

Experiment [1] concerns the target Cytochrome P450 2D6 (Homo sapiens, UniProt P10635).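 Also: CYP2D6 member of a cytochrome P450 panel assay.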
The nature of experiment [2]: Trypanosoma cruzi growth suppression in host cells – NIH3T3 host cells, beta-gal luminescence, confirmation (AID 2044).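 Also: intracellular parasites grown in NIH/3T3 mouse fibroblasts as host cells; luminescent beta-galactosidase reporter signal from transgenic T. cruzi replicating inside host cells; inhibitors lower the luminescence signal.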 In kind it is functional, cell-based.
Experiment [3] in a line: NIH3T3 cell viability loss – ATP luminescence, mouse fibroblasts, counter-screen, dose response (AID 2010).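 Also: cells exposed to compound for about 90 hours before reading.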 In kind it is functional, cell-based.
In experiment [4] the target is T1, Cytochrome P450 1A2 (Homo sapiens, UniProt P05177).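 Also: PubChem cytochrome P450 panel assay, CYP1A2 panel member.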
T1 sequence (P05177 whole entry): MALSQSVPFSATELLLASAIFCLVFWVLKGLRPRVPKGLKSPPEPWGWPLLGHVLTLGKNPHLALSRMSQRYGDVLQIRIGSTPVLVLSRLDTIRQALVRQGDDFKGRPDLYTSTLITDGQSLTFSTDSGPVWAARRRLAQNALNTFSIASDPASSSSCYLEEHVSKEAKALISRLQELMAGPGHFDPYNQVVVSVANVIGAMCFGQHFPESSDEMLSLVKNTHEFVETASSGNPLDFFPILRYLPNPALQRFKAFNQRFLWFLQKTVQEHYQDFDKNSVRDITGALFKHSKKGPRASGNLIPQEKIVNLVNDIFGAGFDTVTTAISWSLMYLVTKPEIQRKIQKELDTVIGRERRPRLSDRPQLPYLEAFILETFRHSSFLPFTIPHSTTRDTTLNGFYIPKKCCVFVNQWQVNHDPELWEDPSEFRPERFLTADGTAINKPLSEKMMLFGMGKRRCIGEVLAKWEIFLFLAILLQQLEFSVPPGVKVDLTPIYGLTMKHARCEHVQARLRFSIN

Experiment [5] deals with Cytochrome P450 2C9 (Homo sapiens, UniProt P11712).
The nature of experiment [6]: Luminescence Cell-Based Dose Retest to Confirm Inhibitors of Cancer Stem Cells. [Related pubchem assays (depositor defined):AID2717, AID2721]. To be noted: Homo sapiens. In kind it is functional.
Experiment [7] has as its system INS1. Briefly: INS-1E survival protection against cytokine death – cell-based, luminescence, retest, dose response (AID 449756).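 Also: cell death triggered by IL-1 beta plus TNF-alpha plus IFN-gamma mixture; protective hits raise ATP signal compared with cytokine alone wells.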 The class given is functional. To be noted: Rattus norvegicus.

The structures appear in SMILES notation. Values joined by “and” are separate entries in the source; they are usually repeats but may differ in a detail not shown here. Equal entries are not always repeated. Active and inactive are the calls of the source.

Chain of Cytochrome P450 2C9 (P11712 whole entry): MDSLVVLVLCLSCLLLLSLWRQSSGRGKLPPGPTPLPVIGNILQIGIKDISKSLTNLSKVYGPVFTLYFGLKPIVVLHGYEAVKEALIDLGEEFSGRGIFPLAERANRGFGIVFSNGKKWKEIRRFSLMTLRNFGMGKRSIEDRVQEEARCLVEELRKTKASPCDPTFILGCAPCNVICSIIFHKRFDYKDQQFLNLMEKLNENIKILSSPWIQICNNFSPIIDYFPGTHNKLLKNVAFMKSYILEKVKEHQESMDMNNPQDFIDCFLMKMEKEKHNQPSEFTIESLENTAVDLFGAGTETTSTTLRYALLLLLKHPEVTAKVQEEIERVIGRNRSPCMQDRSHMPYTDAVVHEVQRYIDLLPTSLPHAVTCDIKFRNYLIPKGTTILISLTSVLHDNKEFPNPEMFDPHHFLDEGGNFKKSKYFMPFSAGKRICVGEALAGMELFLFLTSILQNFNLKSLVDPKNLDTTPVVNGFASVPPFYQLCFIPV
Chain of Cytochrome P450 2D6 (P10635 whole entry): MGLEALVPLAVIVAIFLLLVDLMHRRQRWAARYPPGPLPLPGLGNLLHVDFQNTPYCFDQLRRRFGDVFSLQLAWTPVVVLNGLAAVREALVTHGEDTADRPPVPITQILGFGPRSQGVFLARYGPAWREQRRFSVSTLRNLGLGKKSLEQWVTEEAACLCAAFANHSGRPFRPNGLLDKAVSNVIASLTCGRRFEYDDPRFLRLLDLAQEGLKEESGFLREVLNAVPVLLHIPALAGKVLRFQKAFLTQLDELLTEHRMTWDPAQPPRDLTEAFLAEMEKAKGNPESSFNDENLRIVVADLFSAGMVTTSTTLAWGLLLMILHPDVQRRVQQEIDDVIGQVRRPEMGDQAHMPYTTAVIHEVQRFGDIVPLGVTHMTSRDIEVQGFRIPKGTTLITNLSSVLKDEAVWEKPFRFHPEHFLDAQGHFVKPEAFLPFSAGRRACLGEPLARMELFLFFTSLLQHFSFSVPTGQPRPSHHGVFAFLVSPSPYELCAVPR

Take `C[N+]1(C)CCC(=C(c2ccccc2)c2ccccc2)CC1`: in experiment [1], the AC50 was 12.6 µM (inconclusive).

For `CC1(C)CC(NCCN2CCN(C3=CC(=C(C#N)C#N)CC(C)(C)C3)CC2)=CC(=C(C#N)C#N)C1`, the EC50 in experiment [2] was 1.31 µM (active); in experiment [3], > 60 µM (not active).

As for `[O-][S+](Cc1ccc(Br)cc1)Cc1nnc(SCc2ccc(Cl)cc2)n1-c1ccccc1` (centres undefined), the AC50 in experiment [1] is 12.6 µM (inconclusive); in experiment [4], 25.1 µM (inconclusive).

Take `O=C(/C=C\NCC(=O)c1ccccc1)c1ccc(F)cc1`: the AC50 in experiment [1] is 15.8 µM (inconclusive); in experiment [5], 22.4 µM (inconclusive).

Take `COc1cccc(Cn2c(=O)c(CCc3ccccc3)nc3cnc(N4CCNCC4)nc32)c1`: the results for the AC50 in experiment [1] and in experiment [4] were 31.6 µM (inconclusive) and 12.6 µM (inconclusive), respectively.

Turning to `O=C(NCc1cccs1)c1cc(-c2ccncc2)nc2ccc(Br)cc12`, the figures for the EC50 in experiment [2] and in experiment [3] were 2.66 µM (active) and > 60 µM (not active), respectively.

With `COc1cccc(C2=NOC(C(=O)Nc3cccnc3)C2)c1` (centres undefined), in experiment [5], the AC50 was 25.1 µM (inconclusive).

In the case of `CCn1c(N2CCN(S(=O)(=O)c3ccc(F)cc3)CC2)nc2ccccc21`, the AC50 in experiment [6] is > 195 µM (inactive).

On to `O=c1c(CCc2ccccc2)nc2cnc(N3CCOCC3)nc2n1Cc1cccs1`, for which the AC50 in experiment [5] was 3.16 µM (inconclusive).

As for `O=P(Oc1ccccc1)(Oc1ccccc1)N1CCN(c2ccc(F)cc2)CC1`, the AC50 in experiment [7] is 19.4 µM (active).

On to `O=C(Oc1ccccc1)N1CCC2(CCN(Cc3ccncc3)CC2)CC1`, for which the AC50 in experiment [4] was 25.1 µM (inconclusive).

Take `Fc1ccc(CN2CCCN(Cc3nc(-c4ccc5c(c4)OCO5)no3)CC2)cc1`: the EC50 is 0.103 µM (active) in experiment [2] and > 60 µM (inconclusive) in experiment [3].

For `O=C(NCC1CCCCC1)c1cc2ccccc2cc1O`, in experiment [6], the half-maximal activity concentration (AC50) is 5.19 µM (active).

In the case of `COc1ccc(-n2c(S)nnc2CNC(=O)c2ccc(S(=O)(=O)N3CCCC3)cc2)cc1`, in experiment [5], the AC50 was 20 µM (inconclusive).

In the case of `CC1CCN(C(=O)C(=O)c2cn(CC(=O)N3CCCCCC3)c3ccccc23)CC1`, the EC50 was 1.26 µM (active) in experiment [2] and > 60 µM (not active) in experiment [3].

Regarding `CN(C)c1ncc2ncc(=O)n(CCc3ccccc3)c2n1`, in experiment [1], the half-maximal activity concentration (AC50) was 39.8 µM (inconclusive).

For the compound `FC(F)(F)c1cc(CN2CCCC3(CCNCC3)C2)cc(C(F)(F)F)c1`, the AC50 in experiment [1] is 12.6 µM (inconclusive).

As to `S=C(Nc1cccc(Br)c1)N1CCn2cccc2C1c1cccnc1` (centres undefined), the concentration for a half-maximal effect (EC50) in experiment [2] is 1.78 µM (active); in experiment [3], > 60 µM (not active).

For the compound `COC(=O)c1ccc(NC(=O)CCN2CCN(Cc3ccccc3)CC2)cc1`, the values for the EC50 in experiment [2] and in experiment [3] were 0.123 µM (active) and > 60 µM (inconclusive), respectively.

Regarding `O=C(COc1ccc(F)cc1Cl)Nc1cc(S(=O)(=O)N2CCOCC2)ccc1N1CCCCC1`, the EC50 in experiment [2] is 2.56 µM (active); in experiment [3], > 60 µM (not active).

Take `CC(C)=C[C@H]1[C@@H](C(=O)OCc2cc3c(cc2Cl)OCO3)C1(C)C`: the AC50 is 5.01 µM (inconclusive) in experiment [1], 0.794 µM (inconclusive) in experiment [4] and 3.16 µM (inconclusive) in experiment [5].

On to `O=C(c1ccco1)N1CCC[C@@]2(CCN(c3cccc(-c4ccccc4)c3)C2)C1`, for which the AC50 in experiment [1] is 25.1 µM (inconclusive).

Consider `O=C(CSc1ncnc2c1nnn2Cc1ccc(F)cc1)NC1CCCC1`, for which the EC50 in experiment [2] is 3.93 µM (active); in experiment [3] it was > 30 µM (not active).

As for `C=CCN1C(=O)CN=C1Nc1ccccc1`, the AC50 in experiment [4] is 28.2 µM (inconclusive); in experiment [5], 0.0708 µM (inconclusive).

Consider `Cc1ccc(-n2c(C)cc(C(=O)CSc3n[nH]c(N)n3)c2C)cc1`, for which the half-maximal activity concentration (AC50) in experiment [5] was 6.31 µM (inconclusive).

In the case of `Cc1cc2c(NCCc3ccccc3)ncnc2s1`, the AC50 in experiment [7] was 1.98 µM (active).

As for `COc1cc2c(cc1NC(=O)c1cccc(S(=O)(=O)N(C)C)c1)oc1ccccc12`, in experiment [6], the AC50 was 2.54 µM (active).

`O=[N+]([O-])c1cccc(S(=O)(=O)N2CCC(c3nc(-c4ccncc4)no3)CC2)c1`: the values for the EC50 in experiment [2] and in experiment [3] were 1.85 µM (active) and > 30 µM (not active), respectively.

Turning to `CC(Nc1nc(N2CCCCC2)nc2ccccc12)c1ccccc1` (centres undefined), the values for the EC50 in experiment [2] and in experiment [3] were 0.773 µM (active) and 9.37 µM (active), respectively.

`COc1ccccc1/C=C(/CC(=O)NCc1ccc2c(c1)OCO2)c1nc2ccccc2s1`: the EC50 in experiment [2] was 2.19 µM (active); in experiment [3], > 60 µM (not active).

For the compound `CN1CC[C@H](CN2c3ccccc3Sc3ccccc32)C1`, in experiment [4], the concentration at half-maximal activity (AC50) was 5.01 µM (inconclusive).

For `COc1ccc(-n2nnnc2SCC(=O)Nc2ccccc2)cc1`, the half-maximal activity concentration (AC50) in experiment [1] was 2.51 µM (inconclusive).

Turning to `CCN(CC)S(=O)(=O)c1ccc(N2CCN(c3ccccc3OC)CC2)c(N)c1`, the half-maximal activity concentration (AC50) in experiment [7] was 3.55 µM (active).

Consider `CCN1C(=O)C(CC(=O)Nc2ccc(F)cc2)N(CCCN2CCN(c3ccc(F)cc3)CC2)C1=S` (centres undefined), for which the AC50 in experiment [6] was 3.1 µM (active).

For `CCN(CC)c1ccc(S(=O)(=O)N2CCCCC2)cc1NC(=O)C1=COCCO1`, the EC50 is 7.54 µM (active) in experiment [2] and > 60 µM (not active) in experiment [3].

`COc1cccc(-c2nc(NCc3ccccc3OC)c3ccccc3n2)c1`: the AC50 is 10 µM (inconclusive) in experiment [1] and 1 µM (inconclusive) in experiment [5].

On to `CSc1cccc(NC(=S)N(CCCN2CCCC2)Cc2cccn2Cc2ccc(Cl)cc2)c1`, for which the concentration giving a half-maximal response (EC50) in experiment [2] was 2.25 µM (active); in experiment [3], > 60 µM (not active).

Regarding `COc1ccccc1NS(=O)(=O)c1cc(NC(=O)Nc2ccc(Cl)cc2Cl)ccc1N1CCCCC1`, the EC50 in experiment [2] was 1.58 µM (active).

With `CN1CCN(S(=O)(=O)c2cc([N+](=O)[O-])ccc2N2CCCCCC2)CC1`, the AC50 in experiment [4] was 25.1 µM (inconclusive).

`CCOc1ccccc1N1CCN(c2ncnc3scc(-c4ccc(OC)cc4)c23)CC1`: the figures for the concentration for a half-maximal effect (EC50) in experiment [2] and in experiment [3] were 2.44 µM (active) and > 60 µM (not active), respectively.

As for `CCC(=O)c1cc(F)c(N2CCN(S(=O)(=O)c3ccc(C)cc3)CC2)cc1C`, the EC50 in experiment [2] was 2.68 µM (active); in experiment [3] it was > 60 µM (not active).

Turning to `CCOc1cc(N2CCOCC2)c(OCC)cc1NC(=O)c1ccc2ccccc2n1`, the half-maximal effective concentration (EC50) in experiment [2] is 2.63 µM (active); in experiment [3], 7.58 µM (active).

As for `CCC(=O)Nc1ccccc1C(=O)OCC(=O)c1cccc2ccccc12`, the AC50 in experiment [1] was 0.0891 µM (inconclusive).

For `Cc1cc(C)c(OCC(O)CNC(C)(C)C)c(C)c1` (centres undefined), the AC50 in experiment [7] is > 120 µM (inactive).

Turning to `Cc1cnc(NC(=O)CSc2ccc(Cl)cc2)s1`, the AC50 in experiment [5] was 20 µM (inconclusive).

In the case of `CN(C)C(=O)c1ccc(-c2nc(-n3ccnc3)c3ccccc3n2)cc1`, in experiment [4], the half-maximal activity concentration (AC50) was 20 µM (inconclusive).

With `CCOC(=O)C1(Cc2cccc(OC)c2)CCCN(Cc2c(C)nn(C(C)C)c2C)C1` (centres undefined), the EC50 in experiment [2] is 1.19 µM (active); in experiment [3], > 60 µM (not active).

For `Cc1ccc(-c2nc3cc(Br)cnc3nc2-c2ccc(C)cc2)cc1`, the EC50 in experiment [2] was 2.68 µM (active); in experiment [3], > 60 µM (not active).

For the compound `CC(=O)c1c(C)n(CC(=O)NCc2ccco2)c2ccccc12`, the AC50 in experiment [7] was > 260 µM (inactive).

Consider `C=C[C@@H]1c2cccc(C)c2N(S(=O)(=O)c2ccc(C)cc2)[C@H](c2ccc(OC(C)=O)cc2)C1(C#N)C#N`, for which the AC50 in experiment [6] was 5.13 µM (active).

`Cc1cccc(NC(NC(=O)c2cccnc2)C(Cl)(Cl)Cl)c1` (centres undefined): the AC50 in experiment [4] was 22.4 µM (inconclusive).

Turning to `O=C1C=C(c2ccc(F)cc2OCc2ccccc2)C[C@@H](c2ccc(F)cc2)C1`, the AC50 in experiment [6] is 0.964 µM (active).

As to `O=C(NCCOCCOCCNC(=O)c1cccnc1)c1cccnc1`, in experiment [7], the concentration at half-maximal activity (AC50) is 2.55 µM (active).

Consider `O=C(Cn1nnc(-c2ccccc2)n1)OCc1ccccc1`, for which the AC50 in experiment [5] was 8.91 µM (inconclusive).

For the compound `CCCOc1ccc(-c2nc(N3CCN(CC)CC3)c3ccccc3n2)cc1`, the AC50 in experiment [6] is 5.57 µM (active).

For `COc1ccc(Sc2ccc(-c3nc4cnccn4c3NC3CCCCC3)cc2OC)cc1`, in experiment [6], the AC50 was 2.93 µM (active).

On to `CCCCCCSc1cc(-c2nc3ccc(C)cn3c2NCCCC)ccc1OC`, for which the AC50 was 5.12 µM (active) in experiment [6] and 7.09 µM (active) in experiment [7].

With `Sc1nnc(C2CCCCC2)n1/N=C/c1cccs1`, the values for the AC50 in experiment [4] and in experiment [5] were 2 µM (inconclusive) and 31.6 µM (inconclusive), respectively.

Take `CS(=O)(=O)Nc1cccc(-c2cncnc2NCc2ccccc2)c1`: the AC50 in experiment [1] is 20 µM (inconclusive).

As to `NC(=NCc1ccccc1)NC(=O)c1nc(Cl)c(N)nc1N` [BENZAMIL], the AC50 in experiment [4] was 12.6 µM (inconclusive) and 10 µM (inconclusive).

For the compound `O=C1c2ccccc2C(=O)C1c1ccccc1` [PHENINDIONE], the AC50 in experiment [4] was 15.8 µM (inconclusive).

As to `c1cc(CN2CCCCC2)cc(OCCCNc2nc3ccccc3s2)c1` [ZOLANTIDINE], the AC50 in experiment [4] was 31.6 µM (inconclusive) and 15.8 µM (inconclusive).
